Values quoted from earlier work as cited in patent US6353028B2, “Composition and method for topically treating Peyronie's Disease, Dupuytren's hand contracture, Ledderhose Fibrosis, erectile dysfunction arising from plaque accumulations, and scarring” (priority 1998, dated 2002).

System: Peyronie's disease
Settings: intra-lesional injection

COc1ccc(CCN(C)CCCC(C#N)(c2ccc(OC)c(OC)c2)C(C)C)cc1OC (stereo not shown) [Verapamil]
success of intra-lesional injections in Peyronie's disease: very limited success
